Like-named read-outs stand apart in the source and are kept apart here. One block for each compound: values may come before it.
Legend:
[1] = target: T1, GDP-bound NRAS WT (Homo sapiens, UniProt P01111); test: SOS1-mediated guanine nucleotide exchange assay (TR-FRET); assay type: biochemical
T1 construct: His-tagged NRAS WT (aa 1–172); made in house; host or cells: Escherichia coli

[2] = target: T2, GppNp-bound NRAS WT (Homo sapiens, UniProt P01111); test: GppNp-loaded RAS and cRAF interaction assay (HTRF); assay type: biochemical
T2 construct: His-tagged NRAS WT (aa 1–172); made in house; host or cells: Escherichia coli
T2 sequence (P01111 1-172): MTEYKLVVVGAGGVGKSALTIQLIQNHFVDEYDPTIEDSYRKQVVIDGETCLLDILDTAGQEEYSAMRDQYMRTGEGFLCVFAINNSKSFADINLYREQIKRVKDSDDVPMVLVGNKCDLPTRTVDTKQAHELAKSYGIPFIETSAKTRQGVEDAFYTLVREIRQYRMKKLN

[3] = tested on: NCI-H1373 lung cancer xenograft; test: Cell line–derived xenograft study; assay type: in vivo, BALB/c-nu mice; conditions: NCI-H1373 lung cancer xenograft model; single agents or combination, orally once a day
Description: Female BALB/c nude mice (CAnN.Cg-Foxn1^nu/Crl, RRID: IMSR_CRL:194) were obtained from Beijing Vital River Laboratory Animal Technology Co., Ltd. Female BALB/c-nu mice (BALB/cAnSlacNifdc-nu) were obtained from SPF (Beijing) Biotechnology Co., Ltd. Female NCG mice (NOD/ShiLtJGpt-Prkdc^em26Cd52Il2rg^em26Cd22/Gpt) were obtained from GemPharmatech. Subcutaneous tumors were induced by injecting cells in PBS containing 50% BD Matrigel (Corning) in the right flank of female BALB/c-nu mice (NCI-H1373, 5 × 10^6 cells), female BALB/c nude mice (MIA PaCa-2, 1 × 10^7 cells), or female NCG mice (NCI-H358, 5 × 10^6 cells).

[4] = target: T3, GDP-bound HRAS WT (Homo sapiens, UniProt P01112); test: SOS1-mediated guanine nucleotide exchange assay (TR-FRET); assay type: biochemical; conditions: GDP-bound HRAS WT; compound pre-incubation 25°C, 60 min; read-out: IC50
T3 construct: His-tagged HRAS WT (aa 1–166); made in house; host or cells: Escherichia coli
T3 sequence (P01112 1-166): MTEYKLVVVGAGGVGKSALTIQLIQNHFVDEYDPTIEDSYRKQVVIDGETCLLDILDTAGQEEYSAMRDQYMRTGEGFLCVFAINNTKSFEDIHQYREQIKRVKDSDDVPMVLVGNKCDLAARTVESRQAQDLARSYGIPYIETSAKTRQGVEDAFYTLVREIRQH

[5] = target: T4, GppNp-bound HRAS WT (Homo sapiens, UniProt P01112); test: GppNp-loaded RAS and cRAF interaction assay (HTRF); assay type: biochemical; conditions: GppNp-bound HRAS WT and cRAF RBD interaction; read-out: IC50
T4 construct: His-tagged HRAS WT (aa 1–166); made in house; host or cells: Escherichia coli
T4 sequence (P01112 1-166): as above

[6] = tested on: Ba/F3 cells carrying HRAS p.G12C; test: Ba/F3-engineered cell line viability; assay type: cell-based; conditions: Mus musculus, BaF3, 144 h; Ba/F3 HRAS p.G12C; 6 days of treatment; read-out: Cell viability IC50
Procedure: (§1) The inhibitory activity of compounds on Ba/F3-engineered cell line viability was tested by Kyinno Biotechnology. Other cell viability assays on human cancer cell lines were conducted in-house. Cells were seeded in 96-well plates and incubated overnight, followed by treatment with various concentrations of compounds or solvent control for 6 days. Cell viability was detected using either the CellTiter-Glo (CTG) luminescent cell viability assay or the CTG 3D cell viability assay (Promega) for 2D and 3D CTG assays, respectively. […] The cell density is indicated in Supplementary Table S3.

[7] = tested on: Ba/F3 cells carrying NRAS p.G12C; test: Ba/F3-engineered cell line viability; assay type: cell-based; conditions: Mus musculus, BaF3, 144 h; Ba/F3 NRAS p.G12C; 6 days of treatment; read-out: Cell viability IC50
Procedure: as §1

[8] = tested on: CR6256 PDX tumors rebounding after sotorasib treatment; test: PDX study on tumors regrown under sotorasib; assay type: in vivo, mice; conditions: after 63 days of 100 mg/kg sotorasib; then 100 mg/kg sotorasib, 100 mg/kg glecirasib, 50 mg/kg cetuximab or combination

T1 sequence (P01111 1-172): as the sequence (P01111 1-172) above

IC50 [1]: > 10 µM
IC50 [2]: > 10 µM
Structure (SMILES): C=C(F)C(=O)N1CCN(c2nc(OC[C@@H]3CCCN3C)nc3c2CCN(c2cccc4cccc(Cl)c24)C3)C[C@@H]1CC#N [Adagrasib]

Structure (SMILES): Nc1nccc(Sc2cnc(N3CCC4(CC3)Cc3ncccc3[C@H]4N)cn2)c1Cl [JAB-3312]
TGI [3]: 64%

IC50 [4]: > 10 µM
IC50 ([1]; GDP-bound NRAS WT, compound pre-incubation 25°C, 60 min, read-out: IC50): > 10 µM
IC50 [5]: > 10 µM
IC50 ([2]; GppNp-bound NRAS WT and cRAF RBD interaction, read-out: IC50): > 10 µM
IC50 [6]: 0.0271 µM
IC50 [7]: 0.0147 µM
Structure (SMILES): C=CC(=O)N1CCN(c2nc(=O)n(-c3c(C)ccnc3C(C)C)c3nc(-c4c(O)cccc4F)c(F)cc23)[C@@H](C)C1 [Sotorasib, reference compound]
tumor response of rebound tumors [8]: continued to grow
